Measured values taken from patent US20250101019A1 (Insilico Medicine IP Limited, priority 2022, published 2025).

Experiments:
ENPP1 [1] = target: T1, ENPP1 (Homo sapiens (Human), UniProt P22413); test: cGAMP-Glo enzymatic assay (2′3′-cGAMP substrate, AMP-Glo readout); format: biochemical; conditions: substrate 2′3′-cGAMP; 25° C. for 60 min; 50 mM Tris pH 8.8
Protocol: (§1) Example A: Enzymatic Assay
(§2) • 1. Diluted compounds in DMSO by hand for 11 points, 3 folds dilution. Then transferred 0.02 μL compounds to 384 assay plate by ECHO. • 2. Added 2 μL specified concentration of ENPP1 to 384 assay plate. Centrifuged 1000 RPM for 1 min. • 3. Added 2 μL specified concentration of ATP to the assay plate. Centrifuged 1000 RPM for 1 min. • 4. Incubated at 25° C. for 60 min. • 5. Added 4 μL AMP-Glo Reagent to the assay plates. • 6. Centrifuged 1000 RPM for 1 min, incubate at 25° C. for 1 hours. • 7. Added 8 μL Kinase Detection Reagent to the assay plates. • 8. Centrifuged 1000 RPM for 1 min, incubated at 25° C. for 1 hours. The final assay reaction mixture contained a buffer of 50 mM Tris pH 8.8, 250 mM NaCl and 0.1% BSA • 9. Read on Envision for US LUM as RLU. • 10. Analyzed the raw data using the equation (V. Data analysis). cGAMP-Glo Assay: • 1. Diluted compounds in DMSO by hand for 11 points, 3 folds dilution. Then transferred 0.02 μL compounds to 384 assay plate by ECHO. • 2. Added 2 μL specified concentration of ENPP1 to 384 assay plate, centrifuged 1000 RPM for 1 min. • 3. Added 2 μL specified concentration of 2′3′-cGAMP to the assay plate, centrifuged 1000 RPM for 1 min. • 4. Incubated at 25° C. for 60 min. • 5. Added 4 μL AMP-Glo Reagent to the assay plates. • 6. Centrifuged 1000 RPM for 1 min, incubated at 25° C. for 1 hours. • 7. Added 8 μL Kinase Detection Reagent to the assay plates. • 8. Centrifuged 1000 RPM for 1 min, incubate at 25° C. for 1 hours. The final assay reaction mixture contained a buffer of 50 mM Tris pH 8.8, 250 mM NaCl and 0.1% BSA • 9. Read on Envision for US LUM as RLU. • 10. Analyzed the raw data using the equation (V. Data analysis).

ENPP1 [2] = target: T1, ENPP1; test: ATP-Glo enzymatic assay (ATP substrate, AMP-Glo readout); format: biochemical; conditions: 25° C. for 60 min, 50 mM Tris pH 8.8
Protocol: as §1, §2

T1 sequence (P22413 whole entry, species assumed): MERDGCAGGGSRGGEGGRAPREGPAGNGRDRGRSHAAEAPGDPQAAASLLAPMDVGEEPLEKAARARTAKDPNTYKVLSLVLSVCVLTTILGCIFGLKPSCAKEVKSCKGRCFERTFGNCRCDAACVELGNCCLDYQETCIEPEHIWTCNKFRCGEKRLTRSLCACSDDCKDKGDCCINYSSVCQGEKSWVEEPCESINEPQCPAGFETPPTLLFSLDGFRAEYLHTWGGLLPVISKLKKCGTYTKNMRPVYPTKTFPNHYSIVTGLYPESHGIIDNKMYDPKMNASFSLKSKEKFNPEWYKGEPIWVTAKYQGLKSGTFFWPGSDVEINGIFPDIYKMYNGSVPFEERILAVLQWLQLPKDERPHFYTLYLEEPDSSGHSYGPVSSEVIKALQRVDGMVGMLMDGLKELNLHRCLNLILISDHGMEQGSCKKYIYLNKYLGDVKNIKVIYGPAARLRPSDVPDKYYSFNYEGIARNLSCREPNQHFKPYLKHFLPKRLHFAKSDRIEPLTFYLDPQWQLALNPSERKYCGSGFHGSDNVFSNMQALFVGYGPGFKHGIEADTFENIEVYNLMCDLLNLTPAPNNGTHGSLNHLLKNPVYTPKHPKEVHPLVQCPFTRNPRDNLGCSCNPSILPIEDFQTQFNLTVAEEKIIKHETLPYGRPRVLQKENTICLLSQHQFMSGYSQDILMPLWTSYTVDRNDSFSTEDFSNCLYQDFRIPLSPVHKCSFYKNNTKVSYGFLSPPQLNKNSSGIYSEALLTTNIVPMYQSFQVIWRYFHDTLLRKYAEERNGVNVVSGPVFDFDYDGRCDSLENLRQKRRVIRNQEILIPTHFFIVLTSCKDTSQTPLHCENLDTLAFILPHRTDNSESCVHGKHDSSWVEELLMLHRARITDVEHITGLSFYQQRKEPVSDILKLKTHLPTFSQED

Row | Structure (SMILES) | IC50 (ENPP1 [1]) [nM] | IC50 (ENPP1 [2]) [nM]
1 | Cc1ncc2nc(C)n(Cc3c(F)cc(S(N)(=O)=O)cc3F)c2c1-c1ccccc1 [Example 26, 4-((2,6-dimethyl-7-phenyl-1H-imidazo[4,5-c]pyridin-1-yl)methyl)-3,5-difluorobenzenesulfonamide] | < 1 | < 1
2 | Cc1ncc2nc(C)n(Cc3c(F)cc(S(N)(=O)=O)cc3F)c2c1C1CC1 [Example 52, 4-((7-cyclopropyl-2,6-dimethyl-1H-imidazo[4,5-c]pyridin-1-yl)methyl)-3,5-difluorobenzenesulfonamide] | < 1 | < 1
3 | Cc1ncc2nc(C)n(Cc3ccc(OS(N)(=O)=O)cc3)c2c1-c1ccccc1 [Example 37] | < 1 | < 1
4 | Cc1nc2cncc(-c3ccccc3)c2n1Cc1ccc(S(N)(=O)=O)cc1 [Example 40, 4-((2-methyl-7-phenyl-1H-imidazo[4,5-c]pyridin-1-yl)methyl)benzene sulfonamide] | < 1 | < 1
5 | Cc1ncc2nc(C(F)(F)F)n(Cc3ccc(S(N)(=O)=O)cn3)c2c1-c1ccccc1 [Example 67, 6-((6-methyl-7-phenyl-2-(trifluoromethyl)-1H-imidazo[4,5-c]pyridin-1-yl)methyl)pyridine-3-sulfonamide] | < 1 | < 1
6 | Cc1ncc2nc(CF)n(Cc3c(F)cc(S(N)(=O)=O)cc3F)c2c1-c1ccccc1 [Example 47, 3,5-difluoro-4-((2-(fluoromethyl)-6-methyl-7-phenyl-1H-imidazo[4,5-c]pyridin-1-yl)methyl)benzenesulfonamide] | < 1 | < 1
7 | Cc1ncc2c(C)cn(Cc3c(F)cc(S(N)(=O)=O)cc3F)c2c1-c1ccccc1 [Example 14, 4-[(3,6-dimethyl-7-phenylpyrrolo[3,2-c]pyridin-1-yl)methyl]-3,5-difluorobenzene-1-sulfonamide] | < 1 | < 1
8 | Cc1ncc2nc(C)n(Cc3c(F)cc(S(N)(=O)=O)cc3F)c2c1C [Example 63, 3,5-difluoro-4-((2,6,7-trimethyl-1H-imidazo[4,5-c]pyridin-1-yl)methyl)benzenesulfonamide] | < 1 | < 1
9 | Cc1ncc2nc(C)n(Cc3c(F)cc(S(N)(=O)=O)cc3F)c2c1C1=CCCC1 [Example 58, 4-((7-(cyclopent-1-en-1-yl)-2,6-dimethyl-1H-imidazo[4,5-c]pyridin-1-yl)methyl)-3,5-difluorobenzenesulfonamide] | < 1 | < 1
10 | COc1ncc2nc(C(F)(F)F)n(Cc3ccc(S(N)(=O)=O)cn3)c2c1-c1ccccc1 [Example 77] | < 1 | < 1
11 | Cc1ncc2nc(C)n(Cc3c(F)cc(S(N)(=O)=O)cc3F)c2c1-c1cccc(F)c1 [Example 45, 3,5-difluoro-4-((7-(3-fluorophenyl)-2,6-dimethyl-1H-imidazo[4,5-c]pyridin-1-yl)methyl)benzenesulfonamide] | < 1 | < 1
12 | Cc1ncc2nc(C3CC3)n(Cc3c(F)cc(S(N)(=O)=O)cc3F)c2c1-c1ccccc1 [Example 39, 4-((2-cyclopropyl-6-methyl-7-phenyl-1H-imidazo[4,5-c]pyridin-1-yl)methyl)-3,5-difluorobenzenesulfonamide] | < 1 | < 1
13 | COc1ncc2c(C)cn(Cc3ccc(S(N)(=O)=O)cc3)c2c1-c1ccn(C)n1 [Example 6, 4-((6-methoxy-3-methyl-7-(1-methyl-1H-pyrazol-3-yl)-1H-pyrrolo[3,2-c]pyridin-1-yl)methyl)benzenesulfonamide] | 1 to 10 | 1 to 10

Other lines, results leading:

Row | IC50 (ENPP1 [1]) [nM] | IC50 (ENPP1 [2]) [nM] | Structure (SMILES)
14 | 100 to 1000 | > 1000 | COc1ncc2ccn(Cc3ccc(NS(N)(=O)=O)cc3)c2c1-c1ccn(C)n1 [Example 3, N-(4-((6-methoxy-7-(1-methyl-1H-pyrazol-3-yl)-1H-pyrrolo[3,2-c]pyridin-1-yl)methyl)phenyl) sulfamide]
15 | < 1 | < 1 | Cc1ncc2nc(C(F)(F)F)n(Cc3ncc(S(N)(=O)=O)cc3F)c2c1-c1ccccc1 [Example 69, 5-fluoro-6-((6-methyl-7-phenyl-2-(trifluoromethyl)-1H-imidazo[4,5-c]pyridin-1-yl)methyl)pyridine-3-sulfonamide]
16 | < 1 | < 1 | Cc1ncc2nc(C)n(Cc3ncc(S(N)(=O)=O)cc3F)c2c1-c1ccccc1 [Example 68, 6-((2,6-dimethyl-7-phenyl-1H-imidazo[4,5-c]pyridin-1-yl)methyl)-5-fluoropyridine-3-sulfonamide]
17 | < 1 | < 1 | Cc1ncc2ncn(Cc3ccc(S(N)(=O)=O)cc3)c2c1-c1ccccc1 [Example 29, 4-((6-methyl-7-phenyl-1H-imidazo[4,5-c]pyridin-1-yl)methyl)benzene sulfonamide]
18 | < 1 | < 1 | Cc1ncc2nc(C3CC3)n(Cc3ncc(S(N)(=O)=O)cc3F)c2c1-c1ccccc1 [Example 70, 6-((2-cyclopropyl-6-methyl-7-phenyl-1H-imidazo[4,5-c]pyridin-1-yl)methyl)-5-fluoropyridine-3-sulfonamide]
19 | < 1 | < 1 | COc1ncc2nc(C(F)F)n(Cc3ccc(S(N)(=O)=O)cn3)c2c1-c1ccccc1 [Example 75, 6-((2-(difluoromethyl)-6-methoxy-7-phenyl-1H-imidazo[4,5-c]pyridin-1-yl)methyl)pyridine-3-sulfonamide]
20 | < 1 | < 1 | Cc1cc(Cn2c(C3CC3)nc3cnc(C)c(-c4ccccc4)c32)ccc1S(N)(=O)=O [Example 55, 4-((2-cyclopropyl-6-methyl-7-phenyl-1H-imidazo[4,5-c]pyridin-1-yl)methyl)-2-methylbenzenesulfonamide]
21 | 1 to 10 | 10 to 100 | COc1ncc2ccn(Cc3ccc(S(N)(=O)=O)cc3)c2c1-c1ccn(C)n1 [Example 5, 4-((6-methoxy-7-(1-methyl-1H-pyrazol-3-yl)-1H-pyrrolo[3,2-c]pyridin-1-yl)methyl)benzenesulfonamide]
22 | < 1 | < 1 | Cc1ncc2c(c1-c1ccccc1)n(Cc1c(F)cc(S(N)(=O)=O)cc1F)c(=O)n2C [Example 59, 4-((3,6-dimethyl-2-oxo-7-phenyl-2,3-dihydro-1H-imidazo[4,5-c]pyridin-1-yl)methyl)-3,5-difluorobenzenesulfonamide]
23 | 1 to 10 | 1 to 10 | COc1ncc2ccn(Cc3c(F)cc(S(N)(=O)=O)cc3F)c2c1-c1ccn(C)n1 [Example 7, 3,5-difluoro-4-((6-methoxy-7-(1-methyl-1H-pyrazol-3-yl)-1H-pyrrolo[3,2-c]pyridin-1-yl)methyl)benzenesulfonamide]
24 | 10 to 100 | 10 to 100 | COc1ncc2ccn(Cc3ccc(S(N)(=O)=O)cc3)c2c1-n1ccc(C)n1 [Example 8, 4-((6-methoxy-7-(3-methyl-1H-pyrazol-1-yl)-1H-pyrrolo[3,2-c]pyridin-1-yl)methyl)benzenesulfonamide]
25 | < 1 | < 1 | Cc1ncc2c(c1C1=CCCC1)n(Cc1c(F)cc(S(N)(=O)=O)cc1F)c(=O)n2C [Example 62, 4-((7-(cyclopent-1-en-1-yl)-3,6-dimethyl-2-oxo-2,3-dihydro-1H-imidazo[4,5-c]pyridin-1-yl)methyl)-3,5-difluorobenzenesulfonamide]
26 | < 1 | < 1 | [2H]C([2H])([2H])Oc1ncc2nc(C)n(Cc3ncc(S(N)(=O)=O)cc3F)c2c1-c1ccccc1 [Example 85, 5-fluoro-6-((6-(methoxy-d3)-2-methyl-7-phenyl-1H-imidazo[4,5-c]pyridin-1-yl)methyl)pyridine-3-sulfonamide]
27 | < 1 | < 1 | COc1ncc2c(c1-c1ccccc1)N(Cc1c(F)cc(S(N)(=O)=O)cc1F)C(=O)C2 [Example 57, 3,5-difluoro-4-((6-methoxy-2-oxo-7-phenyl-2,3-dihydro-1H-pyrrolo[3,2-c]pyridin-1-yl)methyl)benzenesulfonamide]
28 | < 1 | < 1 | COc1ncc2nc(C)n(Cc3ccc(S(N)(=O)=O)cc3)c2c1-c1ccccc1 [Example 22, 4-((6-methoxy-2-methyl-7-phenyl-1H-imidazo[4,5-c]pyridin-1-yl)methyl)benzenesulfonamide]
29 | < 1 | < 1 | Cc1ncc2nc(CC(F)(F)F)n(Cc3c(F)cc(S(N)(=O)=O)cc3F)c2c1-c1ccccc1 [Example 50, 3,5-difluoro-4-((6-methyl-7-phenyl-2-(2,2,2-trifluoroethyl)-1H-imidazo[4,5-c]pyridin-1-yl)methyl)benzenesulfonamide]
